Measured values as given in patent publication US20150210641A1, “NOVEL CYTOCHROME P450 INHIBITORS AND THEIR METHOD OF USE” (CORTENDO AB (PUBL), priority 2014, published 2015).

Experiments:
Type in all cases: cell-based
recombinant CYP-17 = target: T1, recombinant CYP-17 (Homo sapiens, UniProt P05093); test: Cyp17 assay: 3H-acetic acid release from [21-3H] 17α-hydroxyl-Pregnenolone in AD293 cells; conditions: AD293 cells stably over-expressing recombinant CYP-17; eight concentrations 10 μM to 4.5 nM
T1 construct: expressed in transfected cells
T1 sequence (P05093 1-508): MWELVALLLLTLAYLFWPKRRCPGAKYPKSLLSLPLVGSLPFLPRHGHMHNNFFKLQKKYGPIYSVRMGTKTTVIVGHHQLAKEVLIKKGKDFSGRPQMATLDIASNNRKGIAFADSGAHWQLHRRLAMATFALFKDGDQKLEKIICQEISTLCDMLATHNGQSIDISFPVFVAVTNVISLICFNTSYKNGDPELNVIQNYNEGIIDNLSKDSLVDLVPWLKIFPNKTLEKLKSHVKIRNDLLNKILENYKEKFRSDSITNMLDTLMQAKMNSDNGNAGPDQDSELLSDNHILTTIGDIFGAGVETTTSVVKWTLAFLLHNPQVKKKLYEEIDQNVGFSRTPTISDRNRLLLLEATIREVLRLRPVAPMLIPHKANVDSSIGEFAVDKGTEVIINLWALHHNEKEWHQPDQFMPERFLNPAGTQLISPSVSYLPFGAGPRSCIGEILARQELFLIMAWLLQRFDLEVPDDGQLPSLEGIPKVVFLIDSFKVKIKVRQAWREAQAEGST
Protocol: Cyp17 assay protocol: AD293 cells that stably over-express recombinant CYP-17 were seeded in 96 well plates coated with poly D-lysine (15,000 cell per well) and incubated at 37° C. for 24 hours in Dulbecco's Modified Eagle Medium (DMEM) with Fetal Bovine Serum (FBS) that is stripped of hormones by charcoal treatment. The media is then removed, the cells are washed once with Phosphate buffer saline solution, and 50 μL Dulbecco's Modified Eagle Medium (DMEM) with Fetal Bovine Serum (FBS) that is stripped of hormones by charcoal treatment is added. Compounds of the disclosure are then added to the wells in eight concentration spanning 10 μM to 4.5 nM, and the plates are incubated for an additional 60 minutes at 37° C. [21-^3H] 17α-hydroxyl-Pregnenolone is then added (50 nCi per well, 31.25 nM) and the plates are incubated for an additional 4 hours at 37° C. The media is then collected, 200 μL of chloroform is added, and the mixture is shaken for 1 hour. The aqueous layer is then separated and analyzed for the presence of ^3H-acetic acid using a Perkin Elmer Topcount NXT to determine IC50s of the compounds of the disclosure.

recombinant CYP-11 = target: T2, recombinant CYP-11 (Homo sapiens, UniProt P15538); test: Cyp11 assay: cortisol formation from 11-deoxycortisol in AD293 cells, LC/MS; conditions: AD293 cells stably over-expressing recombinant CYP-11; eight concentrations 10 μM to 4.5 nM
T2 construct: expressed in transfected cells
T2 sequence (P15538 25-503): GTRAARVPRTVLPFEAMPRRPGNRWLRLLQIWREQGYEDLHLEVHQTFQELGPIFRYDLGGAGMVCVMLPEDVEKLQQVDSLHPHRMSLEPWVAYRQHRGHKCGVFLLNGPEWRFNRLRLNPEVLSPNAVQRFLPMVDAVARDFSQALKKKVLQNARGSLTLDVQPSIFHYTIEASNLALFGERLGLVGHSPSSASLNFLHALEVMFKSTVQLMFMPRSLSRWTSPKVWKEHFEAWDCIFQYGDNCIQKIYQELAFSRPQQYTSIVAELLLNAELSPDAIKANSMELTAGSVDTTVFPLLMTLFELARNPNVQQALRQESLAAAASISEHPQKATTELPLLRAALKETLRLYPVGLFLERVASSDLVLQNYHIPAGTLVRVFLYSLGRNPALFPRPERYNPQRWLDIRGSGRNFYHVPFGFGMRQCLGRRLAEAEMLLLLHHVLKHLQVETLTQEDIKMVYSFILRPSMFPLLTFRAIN
Protocol: Cyp11 assay protocol: AD293 cells that stably over-express recombinant CYP-11 were seeded in 96 well plates coated with poly D-lysine (15,000 cell per well) and incubated at 37° C. for 24 hours in Dulbecco's Modified Eagle Medium (DMEM) with Fetal Bovine Serum (FBS) that is stripped of hormones by charcoal treatment. The media is then removed, the cells are washed once with Phosphate buffer saline solution, and 50 μL Dulbecco's Modified Eagle Medium (DMEM) with Fetal Bovine Serum (FBS) that is stripped of hormones by charcoal treatment is added. Compounds of the disclosure are then added to the wells in eight concentration spanning 10 μM to 4.5 nM, and the plates are incubated for an additional 60 minutes at 37° C. 11-deoxycortisol is then added ([…]) and the plates are incubated for an additional 12 hours at 37° C. After incubation, 50 uL of the supernatant (medium) is transferred into a fresh plate and 150 uL of an acetonitrile solution containing 200 ng/ml of Telmisartan is added. The sample is mixed and then placed in a centrifuge at 2000 rpm for 5 minutes. 100 uL of the supernatant is transferred into a fresh 96 well deep well plate, 100 uL of 1:1 methanol: water was added, the solution was mixed and then analyzed by LC/MS for the presence of cortisol using an Agilent 1200 RRLC/ABSCIEX API4000 LC-MS or Shimadzu Prominance/ABSCIEX API4000 LC-MS to determine IC50s of the compounds of the disclosure.

recombinant CYP-21 = target: T3, recombinant CYP-21 (Homo sapiens, UniProt P08686); test: Cyp21 assay: 11-deoxycortisol formation from 17-OH Progesterone in AD293 cells, LC/MS; conditions: AD293 cells stably over-expressing recombinant CYP-21; eight concentrations 10 μM to 4.5 nM
T3 construct: expressed in transfected cells
T3 sequence (P08686 1-495): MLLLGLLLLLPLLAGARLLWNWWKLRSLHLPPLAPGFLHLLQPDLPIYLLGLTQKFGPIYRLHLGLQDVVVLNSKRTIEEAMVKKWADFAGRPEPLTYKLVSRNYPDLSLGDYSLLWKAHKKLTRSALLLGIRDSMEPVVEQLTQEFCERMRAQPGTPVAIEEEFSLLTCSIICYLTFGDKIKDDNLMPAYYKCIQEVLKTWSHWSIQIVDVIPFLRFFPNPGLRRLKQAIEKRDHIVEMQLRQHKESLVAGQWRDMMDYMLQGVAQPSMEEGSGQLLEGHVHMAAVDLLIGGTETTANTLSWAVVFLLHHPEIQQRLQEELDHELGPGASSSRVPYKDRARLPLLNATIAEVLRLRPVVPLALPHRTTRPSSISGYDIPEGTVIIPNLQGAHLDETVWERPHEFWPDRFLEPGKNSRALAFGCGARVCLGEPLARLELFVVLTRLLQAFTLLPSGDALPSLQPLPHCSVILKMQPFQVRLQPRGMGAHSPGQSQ
Protocol: Cyp21 assay protocol: AD293 cells that stably over-express recombinant CYP-21 were seeded in 96 well plates coated with poly D-lysine (10,000 cell per well) and incubated at 37° C. for 24 hours in Dulbecco's Modified Eagle Medium (DMEM) with Fetal Bovine Serum (FBS) that is stripped of hormones by charcoal treatment. The media is then removed, the cells are washed once with Phosphate buffer saline solution, and 50 μL Dulbecco's Modified Eagle Medium (DMEM) with Fetal Bovine Serum (FBS) that is stripped of hormones by charcoal treatment is added. Compounds of the disclosure are then added to the wells in eight concentration spanning 10 μM to 4.5 nM, and the plates are incubated for an additional 60 minutes at 37° C. 17-OH Progesterone is then added ([…]) and the plates are incubated for an additional 45 minutes at 37° C. After incubation, 50 uL of the supernatant (medium) is transferred into a fresh plate and 150 uL of an acetonitrile solution containing 200 ng/ml of Telmisartan is added. The sample is mixed and then placed in a centrifuge at 2000 rpm for 5 minutes.

Row | Structure (SMILES) | IC50 (recombinant CYP-17) [µM] | IC50 (recombinant CYP-11) [µM] | IC50 (recombinant CYP-21) [µM]
1 | COc1cc(F)ccc1-c1ccc(C(c2ccncc2)N2CCN(c3ccccc3)CC2)cc1 (stereo not drawn) [Entry 22, 1-((4′-fluoro-2′-methoxy-[1,1′-biphenyl]-4-yl)(pyridin-4-yl)methyl)-4-phenylpiperazine] | 0.18 | ≥ 10 | ≥ 10
2 | COc1cc(F)ccc1-c1ccc(C(c2ccncc2)N2CCN(c3ccccn3)CC2)cc1 (stereo not drawn) [Entry 23, 1-((4′-fluoro-2′-methoxy-[1,1′-biphenyl]-4-yl)(pyridin-4-yl)methyl)-4-(pyridin-2-yl)piperazine] | 0.043 | ≥ 10 | ≥ 10
3 | COc1cc(F)ccc1-c1ccc(C(c2ccncc2)N2CCN(c3ccccc3C#N)CC2)cc1 (stereo not drawn) [Entry 24, 2-(4-((4′-fluoro-2′-methoxy-[1,1′-biphenyl]-4-yl)(pyridin-4-yl)methyl)piperazin-1-yl)benzonitrile] | 0.192 | ≥ 10 | ≥ 10
4 | COc1cc(F)ccc1-c1ccc(C(NCCNC(=O)OC(C)(C)C)c2ccncc2)cc1 (stereo not drawn) [Entry 25, tert-butyl(2-(((4′-fluoro-2′-methoxy-[1,1′-biphenyl]-4-yl)(pyridin-4-yl)methyl)amino)ethyl)carbamate] | 0.031 | 4.2 | 4
5 | COc1cc(F)ccc1-c1ccc(C(NCCN)c2ccncc2)cc1 (stereo not drawn) [Entry 26, N1-((4′-fluoro-2′-methoxy-[1,1′-biphenyl]-4-yl)(pyridin-4-yl)methyl)ethane-1,2-diamine] | 0.12 | ≥ 10 | ≥ 10
6 | COc1cc(F)ccc1-c1ccc(C(c2ccncc2)N2CCN(C(C)=O)CC2)cc1 (stereo not drawn) [Entry 27, 1-(4-((4′-fluoro-2′-methoxy-[1,1′-biphenyl]-4-yl)(pyridin-4-yl)methyl)piperazin-l-yl)ethanone] | 0.022 | ≥ 10 | ≥ 10
7 | CCN1CCN(C(c2ccncc2)c2ccc(-c3ccc(F)cc3OC)cc2)CC1 (stereo not drawn) [Entry 28, 1-ethyl-4-((4′-fluoro-2′-methoxy-[1,1′-biphenyl]-4-yl)(pyridin-4-yl)methyl)piperazine] | 0.117 | ≥ 10 | ≥ 10
8 | COc1cc(F)ccc1-c1ccc(C(c2ccncc2)N2CCC(O)CC2)cc1 (stereo not drawn) [Entry 29, 1-((4′-fluoro-2′-methoxy-[1,1′-biphenyl]-4-yl)(pyridin-4-yl)methyl)piperidin-4-ol] | 0.012 | ≥ 10 | 4
9 | COc1cc(F)ccc1-c1ccc(C(c2ccncc2)N2CCNCC2)cc1 (stereo not drawn) [Entry 30, 1-((4′-fluoro-2′-methoxy-[1,1′-biphenyl]-4-yl)(pyridin-4-yl)methyl)piperazine] | 1 | ≥ 10 | ≥ 10
10 | COc1cccc(-c2ccc(C(c3ccncc3)N3CCCCC3)cc2)c1 (stereo not drawn) [Entry 31, 4-((3′-methoxy-[1,1′-biphenyl]-4-yl)(piperidin-1-yl)methyl)pyridine] | 0.027 | ≥ 10 | 2.4
11 | COc1cccc(-c2ccc(C(c3ccncc3)N3CCNCC3)cc2)c1 (stereo not drawn) [Entry 32, 1-((3′-methoxy-[1,1′-biphenyl]-4-yl)(pyridin-4-yl)methyl)piperazine] | 1.17 | ≥ 10 | ≥ 10
12 | COc1cc(F)ccc1-c1ccc(C(OC)c2ccncc2)cc1 (stereo not drawn) [Entry 33, 4-((4′-fluoro-2′-methoxy-[1,1′-biphenyl]-4-yl)(methoxy)methyl)pyridine] | ≥ 10 | ≥ 10 | 0.524
13 | COc1cccc(-c2ccc(C(OC)c3ccncc3)cc2)c1 (stereo not drawn) [Entry 34, 4-(methoxy(3′-methoxy-[1,1′-biphenyl]-4-yl)methyl)pyridine] | 0.51 | 0.48 | 0.62
